Experimental data from patent publication US20260272924A1, “ISOINDOLINE DERIVATIVE, BENZOINDOLE DERIVATIVE AND USE THEREOF” (SHANGHAI HELIOSON PHARMACEUTICAL CO., LTD., priority 2023, published 2026).

Test system: NCI-H929 multiple myeloma cells
Test: Cell Titer-GLO (CTG) assay for proliferation of NCI-H929 cells
Assay type: cell-based
Conditions: Homo sapiens, 72 hours
Experimental: 1. Experimental objective: To determine inhibitory activities of compounds on NCI-H929 multiple myeloma cells.
NCI-H929 cells, purchased from Nanjing Cobioer Biotechnology Co., Ltd, were cultured in RPM11640 (Viva; C3010-0500) medium containing 10% fetal bovine serum (Viva, C04002-500) and 1% of penicillin-streptomycin at 37° C. with 5% of C02 and saturated humidity conditions.
The cells in logarithmic growth phase were plated at 5000 cells per well of a 96-well plate and after overnight incubation, compounds at 0.00512 nM, 0.0256 nM, 0.128 nM, 0.64 nM, 3.2 nM, 16 nM, 80 nM, and 400 nM were dosed into the plate with each dose in 2 duplicate wells. Cells were incubated at 37° C., 5% CO2 for 72 hours. After the incubation, the plate was placed at room temperature for half an hour, and then 50 μL of Cell Titer-Glo® (Promega, G7573) was added. The plate was placed on a shaker for uniform mixing for 2 minutes and was placed in the dark at room temperature for 10 minutes. The luminance signal was measured using SpectraMax Paradigm (Molecular Devices).
Cell activity inhibition rate (%)=1 00−(RLUcompound−RLUblank)/(RLUcontrol−RLUblank)×100%, where control refers to the 0.1% DMSO treatment group, and blank refers to the culture medium control. IC50 values and maximum inhibition rates of the compounds were calculated using a nonlinear regression function “Dose-Response-Inhibition” in Graphpad Prism 7.0.

Which IC50 does the source give for `Cc1ncn(-c2cccc(N3CCN(C4CN(Cc5ccc(Cc6ccc7c8c(cccc68)C(=O)N7C6CCC(=O)NC6=O)cc5)C4)CC3)n2)n1` (stereo not drawn) [Example 53, 3-(6-(4-((3-(4-(6-(3-methyl-1H-1,2,4-triazol-1-yl)pyridin-2-yl)piperazin-1-yl)azetidin-1-yl)methyl)benzyl)-2-oxobenzo[cd]indol-1(2H)-yl)piperidin-2,6-dione] here?
The IC50 was 0.003 nM.

How did the IC50 turn out when `Cc1ncn(-c2ncc(Cl)c(N3CCN(Cc4ccc(Cc5ccc6c7c(cccc57)C(=O)N6C5CCC(=O)NC5=O)cc4)CC3)n2)n1` (stereo not drawn) [Example 45, 3-(6-(4-((4-(5-chloro-2-(3-methyl-1H-1,2,4-triazol-1-yl)pyrimidin-4-yl)piperazin-1-yl)methyl)benzyl)-2-oxobenzo[cd]indol-1(2H)-yl)piperidin-2,6-dione] was run?
Its IC50 is 0.01 nM.

How did the IC50 turn out when `O=C1CCC(N2C(=O)c3cccc4c(Cc5ccc(CN6CCC(NC(=O)c7cccc(-n8ccnc8)n7)CC6)cc5)ccc2c34)C(=O)N1` (stereo not drawn) [Example 6, N-(1-(4-((1-(2,6-dioxopiperidin-3-yl)-2-oxo-1,2-dihydrobenzo[cd]indol-6-yl)methyl)benzyl)piperidin-4-yl)-6-(1H-imidazol-1-yl)pyridin-2-carboxamide] was run?
Its IC50 is 0.07 nM.

How did the IC50 turn out when `CC(C)N1CCN=C1c1cccc(N2CCN(Cc3ccc(Cc4ccc5c6c(cccc46)C(=O)N5C4CCC(=O)NC4=O)cc3)CC2)n1` (stereo not drawn) [Example 79, 3-(6-(4-((4-(6-(1-isopropyl-4,5-dihydro-1H-imidazol-2-yl)pyridin-2-yl)piperazin-1-yl)methyl)benzyl)-2-oxobenzo[cd]indol-1(2H)-yl)piperidin-2,6-dione] was run?
The IC50 was 1.6 nM.

Which IC50 does the source give for `Cc1nc(N2CCN(Cc3ccc(Cc4ccc5c6c(cccc46)C(=O)N5C4CCC(=O)NC4=O)cc3)CC2)cc(-n2cnc(C)n2)n1` (single isomer, unassigned) [Example 47] here?
The IC50 was 0.02 nM.

With `Cc1ncn(-c2cccc(N3CCN(Cc4ccc(COc5cccc6c5CN([C@H]5CCC(=O)NC5=O)C6=O)cc4)CC3)n2)n1` [Example 66, (S)-3-(4-((4-((4-(6-(3-methyl-1H-1,2,4-triazol-1-yl)pyridin-2-Vl)piperazin-1-yl)methyl)benzyl)oxy)-1-oxoisoindolin-2-yl)piperidin-2,6-dione] as the molecule, how does the IC50 read?
The IC50 was 0.1 nM.

With `Cn1c(-c2nccc(N3CCN(Cc4ccc(Cc5ccc6c7c(cccc57)C(=O)N6C5CCC(=O)NC5=O)cc4)CC3)n2)cnc1C(F)(F)F` (stereo not drawn) [Example 61, 3-(6-(4-((4-(2-(1-methyl-2-(trifluoromethyl)-1H-imidazol-5-yl)pyrimidin-4-yl)piperazin-1-yl)methyl)benzyl)-2-oxobenzo[cd]indol-1(2H)-yl)piperidin-2,6-dione] as the molecule, how does the IC50 read?
The IC50 was 0.02 nM.

`O=C1CCC(N2C(=O)c3cccc4c(Cc5ccc(CN6CCC(NC(=O)c7ccnc(-n8ccnc8)n7)CC6)cc5)ccc2c34)C(=O)N1` (stereo not drawn) [Example 7, N-(1-(4-((1-(2,6-dioxopiperidin-3-yl)-2-oxo-1,2-dihydrobenzo[cd]indol-6-yl)methyl)benzyl)piperidin-4-yl)-2-(1H-imidazol-1-yl)pyrimidin-4-carboxamide] was tested. Which IC50 did it give?
Its IC50 is 0.05 nM.

`N#Cc1cn(-c2nccc(N3CCN(Cc4ccc(Cc5ccc6c7c(cccc57)C(=O)N6C5CCC(=O)NC5=O)cc4)CC3)n2)cn1` (stereo not drawn) [Example 44, 3-(6-(4-((4-(2-(4-cvano-1H-imidazol-1-yl)pyrimidin-4-yl)piperazin-1-yl)methyl)benzyl)-2-oxobenzo[cd]indol-1(2H)-yl)piperidin-2,6-dione] was tested. Which IC50 did it give?
Its IC50 is 0.01 nM.

Which IC50 does the source give for `Cc1nc(N2CCN(Cc3ccc(Cc4ccc5c6c(cccc46)C(=O)N5C4CCC(=O)NC4=O)cc3)CC2)cc(-n2cnc(Cl)c2)n1` (stereo not drawn) [Example 50, 3-(6-(4-((4-(6-(-4-chloro-1H-imidazol-1-yl)-2-methylpyrimidin-4-yl)piperazin-1-yl)methyl)benzyl)-2-oxobenzo[cd]indol-1(2H)-yl)piperidin-2,6-dione] here?
The IC50 was 0.01 nM.

How did the IC50 turn out when `Cc1cc(C(=O)N2CCN(Cc3ccc(Cc4ccc5c6c(cccc46)C(=O)N5C4CCC(=O)NC4=O)cc3)CC2)nc(-n2ccnc2)n1` (stereo not drawn) [Example 11, 3-(6-(4-((4-(2-(1H-imidazol-1-yl)-6-methylpyrimidin-4-carbonyl)piperazin-1-yl)methyl)benzyl)-2-oxobenzo[cd]indol-1(2H)-yl)piperidin-2,6-dione] was run?
The IC50 was 0.05 nM.

With `N#Cc1cn(-c2nc(N3CCN(Cc4ccc(Cc5ccc6c7c(cccc57)C(=O)N6C5CCC(=O)NC5=O)cc4)CC3)cc(C(F)(F)F)n2)cn1` (stereo not drawn) [Example 75, 3-(6-(4-((4-(2-(4-cyano-1H-imidazol-1-yl)-6-(trifluoromethyl)pyrimidin-4-yl)piperazin-1-yl)methyl)benzyl)-2-oxobenzo[cd]indol-1(2H)-yl)piperidin-2,6-dione] as the molecule, how does the IC50 read?
The IC50 was 0.02 nM.

With `Cc1nc(N2CCN(Cc3ccc(Cc4ccc5c6c(cccc46)C(=O)N5C4CCC(=O)NC4=O)cc3)CC2)cc(-n2ncc(C(F)(F)F)n2)n1` (stereo not drawn) [Example 76, 3-(6-(4-((4-(2-methyl-6-(4-(trifluoromethyl)-2H-1,2,3-triazol-2-yl)pyrimidin-4-yl)piperazin-1-yl)methyl)benzyl)-2-oxobenzo[cd]indol-1(2H)-yl)piperidin-2,6-dione] as the molecule, how does the IC50 read?
Its IC50 is 0.1 nM.

Which IC50 does the source give for `O=C1CCC(N2C(=O)c3cccc4c(Cc5ccc(CN6CC(CN7CCN(c8cccc(-n9ccnc9)n8)CC7)C6)cc5)ccc2c34)C(=O)N1` (stereo not drawn) [Example 55, 3-(6-(4-((3-((4-(6-(1H-imidazol-1-yl)pyridin-2-yl)piperazin-1-yl)methyl)azetidin-1-yl)methyl)benzyl)-2-oxobenzo[cd]indol-1(2H)-yl)piperidin-2,6-dione] here?
Its IC50 is 0.2 nM.

For `Cc1nc(N2CCN(C3CN(Cc4ccc(COc5cccc6c5CN([C@H]5CCC(=O)NC5=O)C6=O)cc4)C3)CC2)cc(-n2cnc(C(F)(F)F)c2)n1` [Example 78, (S)-3-(4-((4-((3-(4-(2-methyl-6-(4-(trifluoromethyl)-1H-imidazol-1-yl)pyrimidin-4-yl)piperazin-1-yl)azetidin-1-yl)methyl)benzyl)oxy)-1-oxoisoindolin-2-yl)piperidin-2,6-dione], which IC50 is on record?
Its IC50 is 0.1 nM.

`O=C1CCC(N2C(=O)c3cccc4c(Cc5ccc(CN6CCN(c7cc(C(F)(F)F)nc(-c8cncs8)n7)CC6)cc5)ccc2c34)C(=O)N1` (stereo not drawn) [Example 59, 3-(2-oxo-6-(4-((4-(2-(thiazol-5-yl)-6-(trifluoromethyl)pyrimidin-4-yl)piperazin-1-yl)methyl)benzyl)benzo[cd]indol-1(2H)-yl)piperidin-2,6-dione] was tested. Which IC50 did it give?
The IC50 was 0.2 nM.

`O=C1CCC(N2C(=O)c3cccc4c(Cc5ccc(CN6CCC(Nc7ccnc(-n8ccnc8)n7)CC6)cc5)ccc2c34)C(=O)N1` (stereo not drawn) [Example 9, 3-(6-(4-((4-((2-(1H-imidazol-1-yl)pyrimidin-4-yl)amino)piperidin-1-yl)methyl)benzyl)-2-oxobenzo[cd]indol-1(2H)-yl)piperidin-2,6-dione] was tested. Which IC50 did it give?
Its IC50 is 0.07 nM.

With `O=C1CCC(N2C(=O)c3cccc4c(Cc5ccc(CN6CCN(c7ccnc(-n8cnc(C(F)(F)F)n8)n7)CC6)cc5)ccc2c34)C(=O)N1` (stereo not drawn) [Example 39, 3-(2-oxo-6-(4-((4-(2-(3-(trifluoromethyl)-1H-1,2,4-triazol-1-yl)pyrimidin-4-yl)piperazin-1-yl)methyl)benzyl)benzo[cd]indol-1(2H)-yl)piperidin-2,6-dione] as the molecule, how does the IC50 read?
Its IC50 is 0.01 nM.
